# In patent publication US5561154A, “Treatment of acute urinary retention” (Institut de Recherches Chimiques et Bioloques Appliquees …, priority 1995, dated 1996):
# Counter-ions that a name gives are not always drawn. Like-named read-outs stand apart in the source and are kept apart here.
# What was measured:
# [1] = cited from earlier work
# [2] = target: T1, isolated rabbit urethra (contraction induced by noradrenaline) (Oryctolagus cuniculus, UniProt O02824); assay: Isolated rabbit urethra: antagonism of noradrenaline-induced contraction; assay type: cell-based; details: against noradrenaline, isolated male rabbit urethra, 5 experiments; read-out: pA2 (converted)
# T1 construct: from tissue; host or cells: isolated urethra of male rabbits
# T1 sequence (O02824 1-466): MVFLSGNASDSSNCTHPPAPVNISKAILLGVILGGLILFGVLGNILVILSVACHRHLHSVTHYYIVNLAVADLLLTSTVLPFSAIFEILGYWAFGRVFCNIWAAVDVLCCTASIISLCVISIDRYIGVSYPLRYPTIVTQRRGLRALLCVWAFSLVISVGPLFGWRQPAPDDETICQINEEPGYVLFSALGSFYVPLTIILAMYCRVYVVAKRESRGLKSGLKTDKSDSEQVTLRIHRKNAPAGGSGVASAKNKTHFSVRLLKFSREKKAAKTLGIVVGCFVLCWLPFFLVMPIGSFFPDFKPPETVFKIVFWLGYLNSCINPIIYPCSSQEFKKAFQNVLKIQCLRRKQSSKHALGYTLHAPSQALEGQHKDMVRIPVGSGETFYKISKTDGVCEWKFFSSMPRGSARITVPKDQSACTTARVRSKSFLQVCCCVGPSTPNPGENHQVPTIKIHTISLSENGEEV
# Method: After slaughtering of male rabbits, each urethra was taken out then placed into a receptacle containing a physiological saline aqueous solution, and kept at 37° C. with an oxygen/carbon oxide mixture (95/5 p/p). One end of the urethra was fixed to a pressure captor linked to a recording device for measuring the organ contractions.
# Contracturing effects of noradrenaline were determined by succesive infusions of increasing […] up to the contraction corresponding to the maximal amplitude. The measures were carded out with and without DAM.HCl.
# The activity of DAM.HCl was measured as a pA2 value, pA2 being here the cologarithm of the antagonist molar concentration in the presence of which the noradrenaline concentration needs to be multiplied by two to obtain the same effect in the absence of antagonist.
# liver = assay: Absence of hepatotoxicity, 2-month daily i.v. injection in rats; assay type: in vivo, rat; details: male Wistar rats, 1.5 mg/kg daily i.v. for 2 months
# Method: Adult male Wistar rats were daily injected with 1.5 mg/kg of DAM.HCl in saline solution (i.e. the solution of Ex 1) per i.v. route for 2 months, then slaughtered.
# α2 -adrenoreceptors = assay: Radioligand binding, (3H)-rauwolscine, rabbit urethral membranes; details: male rabbit urethral membrane preparation
# Method: (§1) α-adrenoreceptors can be by use of a ^3 H- or 125 I- labelled specific antagonist (or agonist) on membrane preparations of the concerned organ, here rabbit urethra.
# (§2) A male rabbit urethral grinding was filtered then centrifugated. The filtrate thus obtained is a membrane preparation which was incubated with a radioactive ligand, namely (^125 I)-HEAT [wherein HEAT is 2-[2-(3-iodio-4-hydroxyphenyl)ethyl-aminoethyl]-tetralone for the α1 -adrenoreceptors, and (^3 H)-rauwolscine for the α2 -adrenoreceptors.
# (§3) The incubations were carded out in the absence or in the presence of an increasing concentration of the product to be tested. The affinity was measured by means of the inhibition coefficient (Ki).
# [3] = test system: increase in UP induced by electric stimulation of the hypogastric nerve; assay: Anesthetized dogs: hypogastric nerve stimulation, urethral pressure, AP and HR; assay type: in vivo, dog; details: anesthetized Beagle dogs
# Method: Adult male Beagle dogs were anesthetized by i.v. injection of sodium barbital (30 mg/kg).
# The cannulation of each carotid and urethra allowed measurement of AP and UP. By derivation of the AP signal, the heart rate (HR) was recorded.
# The increase in UP was induced by electric stimulation of the hypogastric nerve distal roots (10 ms, 30 Hz, 5s, 6-10 V). That increase in UP is determined before and 15 minutes after the injection of the α-blocking agent to be tested.
# The results were expressed by calculating a ID-50 defined as the dose of α-blocking agent which inhibits 50% of the effects of the hypogastric nerve stimulation on UP. The effects of said ID-50 were determined on AP and HR in order to obtain a variation percentage with respect to the initial values.
# α1 -adrenoreceptors = assay: Radioligand binding, (125I)-HEAT, rabbit urethral membranes
# Method: as §1, §2, §3
# [4] = test system: urethral and arterial pressures induced by noradrenaline; assay: Anesthetized rabbits: noradrenaline-induced increases in urethral and arterial pressure; assay type: in vivo, rabbit; details: Oryctolagus cuniculus, iv, noradrenaline-induced increase, i.v.
# Method: Male White New-Zealand rabbits (weighing 3 kg each) were anesthetized with ethyl-urethane. Arterial pressure (AP) was measured with a pressure captor linked to a catheter located in the carotid; urethral pressure (UP) was determined with a pressure captor linked to a catheter introduced into the urethra and located at the level of the vesical base. The femoral vein was also catheterized for administering the products to be tested.
# The increases in the urethral and arterial pressures, which were induced by noradrenaline, were determined after i.v. injections of increasing doses for periods of 3 minutes each, from 15 minutes before the injection of the α-blocking product to be tested to 15 minutes after said injection.
# The results thus obtained are expressed hereinafter an inhibiting dose 50% (ID-50) which is defined as the dose of a-blocking product in the presence of which, the effect of the largest dose of noradrenaline is divided by a factor 2.
# [5] = pure water and aqueous solutions buffered at pH 5-7; cited from earlier work
# [6] = Stability in aqueous solution; assay type: physicochemical
# Text: In the parent application it was pointed out that DAM, the active ingredient, is effectively soluble and stable in water in the form of its hydrochloride salt. Deacetyl moxisylyte hydrochloride (DAM.HCl) is soluble up to a concentration of 10% p/v, which is the upper therapeutically acceptable concentration, in pure (i.e. distilled, bidistilled or preferably deionized) water and in aqueous solutions buffered at pH 5-7. Water solutions containing 1% p/v of deacetyl moxisylyte hydrochloride without any antioxidant and kept at pH 5, 6 and 7, are stable for 15 days at 25° C. and for 90 minutes at 121° C. […] More details regarding the solubility and stability in water of DAM.HCl are given in the parent application.
# [7] = Hepatotoxicity on administration (general statement); assay type: in vivo; details: administered iv at 50 mg or less doses
structure (smiles),measurement,setting,value
"CC(=O)Oc1cc(C(C)C)c(OCCN(C)C)cc1C [moxisylyte, 4-[2-(dimethylamino)ethoxy]-2-methyl-5-(1methylethyl)phenol acetate, reference compound]",stability of solution stabilized with dimethyl-beta-cyclodextrin at 45° C.,"[1]; pH 5 solution, 1 mg/ml, dimethyl-beta-cyclodextrin as stabilizing agent, 45° C.",3 months
"Cc1cc(OCCN(C)C)c(C(C)C)cc1O [DAM.HCl, Deacetyl moxisylyte hydrochloride]",Kb,[2],3.16 nM
same,stability of water solution at 25° C.,"[1]; 1% p/v, no antioxidant, pH 5, 6 and 7, 25° C.",15 days
same,stability of water solution at 121° C.,"[1]; 1% p/v, no antioxidant, pH 5, 6 and 7, 121° C.",90 min
same,stability of water solution with Na2 SO3 at 95° C.,"[1]; 1% p/v, pH 5, 6 and 7, sodium sulfite 0.1 p/v, 95° C., no coloration",15 days
same,"hepatotoxicity (study of organs, analysis of the liver)",liver,no sign of hepatotoxicity
same,Ki,α2 -adrenoreceptors,637 ± 94 nM
same,Effect of ID-50 on AP (variation percentage with respect to the initial values),[3]; at the ID-50 dose,-6%
same,Effect of ID-50 on HR (variation percentage with respect to the initial values),[3]; at the ID-50 dose,-5%
same,"ID-50, effect on UP","[3]; hypogastric nerve stimulation, 15 minutes after injection, in mg/kg",0.05 ± 0.01
same,times more active on α1 -adrenoreceptors than on α2 -adrenoreceptors,α1 -adrenoreceptors; from Ki values of table II,six
same,Ki,"α1 -adrenoreceptors; male rabbit urethral membrane preparation, (125I)-HEAT",109 ± 20 nM
same,ED50,"[4]; n = 5, read-out: ID-50 i.v., AP (arterial pressure)",3.5 ± 0.65 mg/kg
same,ED50,"[4]; n = 5, read-out: ID-50 i.v., UP (urethral pressure)",0.4 ± 0.03 mg/kg
same,solubility (soluble up to a concentration),[5],> 10 % p/v
"Cc1cc(OCCN(C)C)c(C(C)C)cc1O [DAM, 4-[2-(dimethylamino)ethoxy]-2-methyl-5-(1-methylethyl)phenol]",stability in aqueous solution,[6]; aqueous solution,stable
same,degradation on sterilization of aqueous solution,"[6]; classical sterilization, e.g. autoclave 15 minutes at 121° C. or sterilizing filtration",without degradation
same,hepatotoxicity i.v.,[7],substantially devoid of hepatotoxicity
